Here are results for 15 compounds from patent US20190022225A1, “PROTOCOL FOR INCREASING LIFE EXPECTANCY IN A TEST SUBJECT” (Mayo Foundation for Medical Education and Research, priority 2015, published 2019).

The IC50 is the concentration needed to halve the response being measured. A word on the EC50: it is the midpoint of the concentration-response curve.

Entries after “also recorded” stand apart in the source; their conditions may differ. Read-outs that look alike come from different tables or passages of the source.

Data set [1] has as its system senescent (irradiated) IMR90 cells. The data set is described as follows: CellTiter-Glo cell viability assay, senescent IMR90. The format is cell-based, human. How it is done:
(§1) To determine whether ABT-263 is selectively toxic to senescent cells compared to non-senescent cells, a cell viability assay was used to assess cell survival following treatment with ABT-263. IMR90 cells (human primary lung fibroblasts (IMR90) (IMR-90 (ATCC® CCL-186™, Mannassas, Va.) were seeded in six well plates, and cells were induced to senescence with 10 Gy of ionizing radiation (IR) (Day 0). The media was refreshed every 3 days. The senescent phenotype is allowed to develop for 7 days at which point a cell count was made to determine the baseline number of cells followed by seeding into 96-well plates. On day 8, the senescent cells (irradiated) and the non-senescent cells (the non-radiated cells), were exposed to serial dilutions of ABT-263 for a period of 3 days. ABT-263 concentrations ranged from 0.5 nM to 3 μM. Each condition was seeded in triplicate.
(§2) After three days of treatment (Day 11), cells were assayed for cell survival using the commercially available CellTiter-Glo® (CTG) Luminescent Cell Viability Assay (Promega Corporation, Madison, Wis.). The assay determines the number of viable cells in culture based on the quantitation of ATP present which is an indicator of metabolically active cells.
(§3) The experiments performed for assessing the effect of these other Bcl-2 inhibitors were performed essentially as described in Example 7. Cells were exposed to ABT-199 at serial dilution concentrations ranging from 15 nM to 100 μM (FIGS. 26 and 27). Cells were exposed to Obatoclax at concentrations ranging from 1.4 nM to 9 μM (FIG. 28).
(§4) The effect of ABT-263 in combination with the Akt inhibitor MK-2206 was tested for selective toxicity of senescent cells compared to non-senescent cells in IMR90 cells. The methods of Example 7 were repeated except that cell cultures were exposed to 10 nM MK-2206 (Selleckem, Cat# S1078) in addition to serial dilutions of ABT-263.
(ATP-based viability assays read luminescence as a measure of living cells.)

In data set [2] the test system is non-senescent IMR90 cells. In words: CellTiter-Glo cell viability assay, non-senescent IMR90. The format is cell-based. As to conditions: Homo sapiens, IMR-90, 72 h, IMR90, 3 days. How it is done: as §1, §2, §3, §4
The subject of another data set is Senescent cells (SnC). In words: Cell survival EC50 of MDM2 inhibitors, senescent cells. As to conditions: for EC50: read-out: Cell survival data EC50 SnC.
Data set [3] deals with quiescent high density non senescent cells (HD NsC). The data set is described as follows: Cell survival EC50 of MDM2 inhibitors, quiescent high density non senescent cells. Conditions: read-out: Cell survival data EC50 HD NsC.
For another data set, the system named is p16-3MR mice. The data set is described as follows: Senescence induced by chemotherapeutic drugs in p16-3MR mice (luminescence, skin mRNA). The format is in vivo, mouse. As to conditions: for level of senescent cells (luminescence): p<0.05. How it is done:
Paclitaxel induces senescence and SASP in p16-3MR transgenic mice. Groups of mice (n=4) were treated three times every two days with 20 mg/kg paclitaxel or vehicle. […] The level of mRNA in skin was determined for each of the target genes: p16, 3MR transgene, and IL-6.
To examine senescence induced by different chemotherapeutic drugs, groups of p16-3MR animals (n=4) were treated with thalidomide (100 mg/kg; 7 daily injections); romidepsin (1 mg/kg; 3 injections); pomalidomide (5 mg/kg; 7 daily injections); lenalidomide (50 mg/kg; 7 daily injections); 5-azacytidine (5 mg/kg; 3 injections) and compared with doxorubicin (10 mg/kg, 2-4 injections over 7 days).

As for `CC1(C)CCC(CN2CCN(c3ccc(C(=O)NS(=O)(=O)c4ccc(NCC5CCOCC5)c([N+](=O)[O-])c4)c(Oc4cnc5[nH]ccc5c4)c3)CC2)=C(c2ccc(Cl)cc2)C1` [ABT-199, 4-[4-[[2-(4-Chlorophenyl)-4,4-dimethylcyclohex-1-en-1-yl]methyl]piperazin-1-yl]-N-[[3-nitro-4-[[(tetrahydro-2H-pyran-4-yl)methyl]amino]phenyl]sulfonyl]-2-[(1H-pyrrolo[2,3-b]pyridin-5-yl)oxy]benzamide], the IC50 in data set [1] (Homo sapiens, IMR-90, 72 h, IMR90, 3 days, read-out: IC50 in senescent cells) is 6.9 to 12.4 µM; in data set [2] (CellTiter-Glo, read-out: IC50 on non-senescent cells), 6 to 15.8 µM. Further, the “selective targeting of senescent cells over non-senescent cells” value in data set [1] (IMR90) is “inability”.

As for `CC(C)[C@@H](CS(=O)(=O)C(C)C)N1C(=O)[C@@](C)(CC(=O)O)C[C@H](c2cccc(Cl)c2)[C@H]1c1ccc(Cl)cc1` [AMG-232, 2-((3R,5R,6S)-5-(3-chlorophenyl)-6-(4-chlorophenyl)-1-((S)-1-(isopropylsulfonyl)-3-methylbutan-2-yl)-3-methyl-2-oxopiperidin-3-yl)acetic acid], in the data set on Senescent cells (SnC), the “EC50 dose ratio HD NsC/SnC” value came out at 1.2 and the concentration giving a half-maximal response (EC50) came to 3.4 µM. Also, the EC50 in data set [3] came to 4.1 µM.

For `O=C(/C=C/c1ccc(I)cc1)c1ccc(B(O)O)cc1` [Boronate, trans-4-Iodo, 4′-boranyl-chalcone], the “EC50 dose ratio HD NsC/SnC” value with Senescent cells (SnC) is 14.1. Besides, the “selectivity for senescent cells over quiescent cells” value (“selectivity for senescent cells” for short) is listed as “particularly high selectivity” with Senescent cells (SnC) and “high specificity” in the data set with Senescent cells (SnC) (listed as boronate). The half-maximal effective concentration (EC50) came to 10.8 µM in the data set on Senescent cells (SnC) and 153 µM in data set [3].

On to `O=C1c2c(c(-c3ccccc3)nn2Cc2ccccc2)C(c2ccc(Br)cc2)N1CCCn1ccnc1` (centres unmarked) [CAY10681, 4-(4-bromophenyl)-4,5-dihydro-5-[3-(1H-imidazol-1-yl)propyl]-3-phenyl-1-(phenylmethyl)-pyrrolo[3,4-c]pyrazol-6(1H)-one], for which, in the data set with Senescent cells (SnC), the “EC50 dose ratio HD NsC/SnC” value is on record as 1.6 and the half-maximal effective concentration (EC50) amounted to 11 µM. The EC50 in data set [3] stood at 17.6 µM.

On to `O=C1c2c(c(-c3ccccc3)nn2Cc2ccc(F)cc2)C(c2ccc(Br)cc2)N1CCCn1ccnc1` (centres unmarked) [CAY10682, 4-(4-bromophenyl)-1-[(4-fluorophenyl)methyl]-4,5-dihydro-5-[3-(1H-imidazol-1-yl)propyl]-3-phenyl-pyrrolo[3,4-c]pyrazol-6(1H)-one], for which, in the data set on Senescent cells (SnC), the “EC50 dose ratio HD NsC/SnC” value turned out to be 1.3 and the EC50 worked out at 11.2 µM. For the same compound, in data set [3], the EC50 was found to be 14.3 µM.

For `c1ccc2c(CCNc3ccc(Nc4ccncc4)cc3)c[nH]c2c1` [JNJ 26854165, N1-(2-(1H-indol-3-yl)ethyl)-N4-(pyridin-4-yl)benzene-1,4-diamine], in the data set with Senescent cells (SnC), the “EC50 dose ratio HD NsC/SnC” value worked out at 6.5, the “selectivity for senescent cells” value is “high specificity; also recorded: particularly high selectivity” and the concentration for a half-maximal effect (EC50) is 1 µM. Besides, the half-maximal effective concentration (EC50) in data set [3] was found to be 6.6 µM.

In the case of `CCCCn1c(=O)[nH]c(O)c(C2NCCc3c2[nH]c2ccccc32)c1=O` (centres unmarked) [MEL23, 3-Butyl-6-hydroxy-5-(2,3,4,9-tetrahydro-1H-pyrido[3,4-b]indol-1-yl)pyrimidine-2,4(1H,3H)-dione], in the data set with Senescent cells (SnC), the “EC50 dose ratio HD NsC/SnC” value turned out to be 5.2 and the concentration giving a half-maximal response (EC50) was 4 µM. Further, the “selectivity for senescent cells” value in the data set on Senescent cells (SnC) (listed as Me123) is “high specificity; also recorded: particularly high selectivity”. Besides, in data set [3], the EC50 is 20.9 µM.

Take `Cn1c(=O)c([N+](=O)[O-])c(Cl)c2ccccc21` [ML214]: the “level of killing of senescent cells versus non-senescent cells” value in data set [1] (irradiated and non-senescent IMR90) is reported as “comparable to the level of killing of non-senescent cells”.

As for `COC1=CC(c2cc3ccccc3[nH]2)=N/C1=C\c1[nH]c(C)cc1C` [Obatoclax], the IC50 in data set [2] (read-out: IC50 in non-senescent cells) was found to be 0.075 µM.

`COc1cc(C(=O)O)ccc1NC(=O)[C@@H]1N[C@@H](CC(C)(C)C)[C@](C#N)(c2ccc(Cl)cc2F)[C@H]1c1cccc(Cl)c1F` [RG7388, 4-[[(2R,3S,4R,5S)-3-(3-chloro-2-fluorophenyl)-4-(4-chloro-2-fluorophenyl)-4-cyano-5-(2,2-dimethylpropyl)pyrrolidine-2-carbonyl]amino]-3-methoxybenzoic acid]: in the data set on Senescent cells (SnC), the “EC50 dose ratio HD NsC/SnC” value is 1.0 and the concentration for a half-maximal effect (EC50) came to 32.8 µM. The EC50 in data set [3] was 31.5 µM.

On to `OCc1ccc(-c2ccc(-c3ccc(CO)s3)o2)s1` [RITA, 5,5′-(2,5-Furandiyl)bis-2-thiophenemethanol], for which the “EC50 dose ratio HD NsC/SnC” value with Senescent cells (SnC) stood at 0.9. Besides, the 50% effective concentration (EC50) in the data set with Senescent cells (SnC) stood at 254 µM; in data set [3], 223 µM.

On to `COc1cccc2c1C(=O)c1c(O)c3c(c(O)c1C2=O)C[C@@](O)(C(=O)CO)C[C@@H]3O[C@H]1C[C@H](N)[C@H](O)[C@H](C)O1` [doxorubicin], for which the “level of senescent cells (luminescence)” value in the data set on p16-3MR mice was “significant levels of senescent cells”.

As to `Nc1cccc2c1CN(C1CCC(=O)NC1=O)C2=O` (centres unmarked) [lenalidomide], in the data set on p16-3MR mice, the “level of senescent cells (luminescence)” value is reported as “significant levels of senescent cells”.

Turning to `Nc1cccc2c1C(=O)N(C1CCC(=O)NC1=O)C2=O` (centres unmarked) [omalidomide], the “level of senescent cells (luminescence)” value with p16-3MR mice is listed as “significant levels of senescent cells”.

`CC(=O)O[C@H]1C(=O)[C@@]2(C)[C@H]([C@H](OC(=O)c3ccccc3)[C@]3(O)C[C@H](OC(=O)[C@H](O)[C@@H](NC(=O)c4ccccc4)c4ccccc4)C(C)=C1C3(C)C)[C@]1(OC(C)=O)CO[C@@H]1C[C@@H]2O` [paclitaxel]: the “senescence shown by luminescence” value in the data set on p16-3MR mice (20 mg/kg three times every two days) is listed as “Senescence was observed”. Besides, the “levels of mRNA for p16, 3MR and IL-6 in skin” value with p16-3MR mice (20 mg/kg three times every two days, versus vehicle) is “increased”.
